For orientation: CC50 means the concentration at which the toxic effect on the cells reaches its halfway point. Higher therefore signals lower toxicity to the cells. The term IC50 denotes the concentration that inhibits the measured activity by half.

Structures can show the parent of a compound that is named as a salt. Where only a bound is given, the exact number is not on record here.

Data set [1] is described as follows: Compound toxicity, WST-1, non-infected MDBK cells. The note with it: bovine, 4 days incubation, WST-1 readout. The class given is cell-based. The method, then:
To determine the anti-viral effect of the compounds, MDBK cells were infected with the cytopathic strain of BVDV(NADL) using a 0.006 to 0.01 MOI. 3000 cells were then seeded in each well of a 96-well plate containing the compound. The final volume was 200 μl of media per wells. […] Cell culture was then incubated for another 2 hrs at 37° C., after which 20 μl of 10% SDS was added to each well in order to inactivate the virus and the OD at 450 nm was determined using a microplate reader (Dynatech MR5000).
In parallel, the same experiment was performed using non-infected cells to determine the compound toxicity. […]

Another data set concerns BVDV(NADL). Nature of the data set: WST-1 based BVDV anti-viral assay (CPE reduction in infected MDBK cells). The class given is cell-based. The note with it: Bovine viral diarrhea virus isolates and strains, 96 h, MDBK cells infected with cytopathic BVDV (NADL), MOI 0.006 to 0.01, 4 days incubation, WST-1 readout, read-out: BVDV antiviral effect IC50. As to the method: Currently, the WST-1 based BVDV assay, is being used as surrogate to evaluate potential anti-HCV agents since BVDV (bovine viral diarrhea virus) shares functional homology with the HCV.
To determine the anti-viral effect of the compounds, MDBK cells were infected with the cytopathic strain of BVDV(NADL) using a 0.006 to 0.01 MOI. 3000 cells were then seeded in each well of a 96-well plate containing the compound. The final volume was 200 μl of media per wells. […] Cell culture was then incubated for another 2 hrs at 37° C., after which 20 μl of 10% SDS was added to each well in order to inactivate the virus and the OD at 450 nm was determined using a microplate reader (Dynatech MR5000). […]
In general terms: Formazan colour is commonly taken as a measure of viable cells.

On to `O=C(Nc1nccs1)c1ccc2cccnc2n1` [Compound #22, [1,8] naphthyridine-2-carboxylic acid thiazol-2-ylamide], for which the CC50 at 4 days in data set [1] is greater than 78 µM. On the same count and under the same terms, the value for `O=C(NCc1ccccn1)c1ccc2cccnc2n1` [Compound #13, [1,8] naphthyridine-2-carboxylic acid (pyridin-2-ylmethyl)-amide] was greater than 75.7 µM; that for `O=C(Nc1nc2ccccc2s1)c1ccc2cccnc2n1` [Compound #23, [1,8] naphthyridine-2-carboxylic acid benzothiazol-2-ylamide] was greater than 6.5 µM. Turning to `CC(C)Oc1ccccc1CNC(=O)c1ccc2cccnc2n1` [Compound #8, [1,8] naphthyridine-2-carboxylic acid 2-isopropoxy-benzylamide], in the data set on BVDV(NADL), the IC50 is less than 62.2 µM. Further, the half-maximal cytotoxic concentration (CC50) at 4 days in data set [1] was greater than 62.2 µM. The matching figures for `COc1ccccc1CNC(=N)c1ccc2cccnc2n1` [Compound #27, N-(2-methoxy-benzyl)-[1,8]naphthyridine-2-carboxamidine trifluoroacetate]: roughly 0.33 µM and greater than 63.2 µM. As for `O=C(Nc1cccc(C(F)(F)F)c1)c1ccc2cccnc2n1` [Compound #30, [1,8] naphthyridine-2-carboxylic acid (phenyl-3-trifluoromethyl)-amide], the IC50 in the data set on BVDV(NADL) is roughly 0.6 µM. In data set [1], this molecule displayed a CC50 at 4 days of 6.3 µM.

Consider `O=C(Nc1ccccc1F)c1ccc2cccnc2n1` [Compound #24, [1,8] naphthyridine-2-carboxylic acid (2-fluoro-phenyl)-amide], for which the IC50 in the data set on BVDV(NADL) is roughly 7.5 µM. The molecule also registered a CC50 at 4 days in data set [1] greater than 74.8 µM. As for `O=C(NCc1ccccc1Cl)c1ccc2cccnc2n1` [Compound #17, [1,8] naphthyridine-2-carboxylic acid 2-chloro-benzylamide], the IC50 in the data set on BVDV(NADL) is roughly 3.6 µM. The molecule further yielded a CC50 at 4 days in data set [1] greater than 67.2 µM.

With `COc1ccc(CNC(=O)c2ccc3cccnc3n2)cc1` [Compound #3, [1,8] naphthyridine-2-carboxylic acid 4-methoxy-benzylamide], in the data set with BVDV(NADL), the IC50 is roughly 1.7 µM. This molecule displayed a CC50 at 4 days in data set [1] greater than 68.2 µM.

On to `O=C(Nc1cccnc1)c1ccc2cccnc2n1` [Compound #29, [1,8] naphthyridine-2-carboxylic acid pyridin-3-yl-amide], for which the IC50 in the data set on BVDV(NADL) is roughly 3.2 µM. The molecule further had a CC50 at 4 days in data set [1] greater than 79.9 µM.

Take `COc1cccc(CNC(=O)c2ccc3cccnc3n2)c1` [Compound #4, [1,8] naphthyridine-2-carboxylic acid 3-methoxy-benzylamide]: the IC50 in the data set with BVDV(NADL) was roughly 6.8 µM. The molecule also displayed a CC50 at 4 days in data set [1] greater than 68.2 µM. On the same counts, the results for `O=C(Nc1cccc([N+](=O)[O-])c1)c1ccc2cccnc2n1` [Compound #19, [1,8] naphthyridine-2-carboxylic acid (3-nitrophenyl)-amide] are roughly 1.7 µM and greater than 68 µM.

Consider `O=C(Nc1ccccc1)c1ccc2cccnc2n1` [Compound #28, [1,8] naphthyridine-2-carboxylic acid phenyl-amide], for which the CC50 at 4 days in data set [1] was greater than 80.2 µM.

As to `O=C(NCc1ccccc1)c1ccc2cccnc2n1` [Compound #2, [1,8] naphthyridine-2-carboxylic acid benzylamide], in the data set on BVDV(NADL), the IC50 was less than 76 µM. Besides, in data set [1], the CC50 at 4 days was greater than 76 µM. On to `O=C(Nc1ccccn1)c1ccc2cccnc2n1` [Compound #15, [1,8] naphthyridine-2-carboxylic acid pyridin-2-ylamide], for which the CC50 at 4 days in data set [1] was greater than 79.9 µM.

Regarding `O=C(NCc1ccccc1F)c1ccc2cccnc2n1` [Compound #16, [1,8] naphthyridine-2-carboxylic acid 2-fluoro-benzylamide], in the data set on BVDV(NADL), the IC50 is roughly 1.1 µM. In addition, the CC50 at 4 days in data set [1] was greater than 71.1 µM.

Regarding `COc1cc(OC)c(CNC(=O)c2ccc3cccnc3n2)c(OC)c1` [Compound #5, [1,8] naphthyridine-2-carboxylic acid 2,4,6-trimethoxy-benzylamide], the IC50 in the data set with BVDV(NADL) is roughly 1.1 µM. In data set [1], the CC50 at 4 days was greater than 56.6 µM. The matching figures for `O=C(NCc1cccc(C(F)(F)F)c1)c1ccc2cccnc2n1` [Compound #31, [1,8] naphthyridine-2-carboxylic acid (phenylmethyl-3-trifluoromethyl)-amide]: roughly 3 µM and greater than 60.4 µM. On the same counts, the results for `O=C(NCc1cccnc1)c1ccc2cccnc2n1` [Compound #12, [1,8] naphthyridine-2-carboxylic acid (pyridin-3-ylmethyl)-amide] are roughly 18.9 µM and greater than 75.7 µM.

Take `CC[C@@H](C)Oc1ccccc1CNC(=O)c1ccc2cccnc2n1` [Compound #10, (−)-[1,8] naphthyridine-2-carboxylic acid 2-sec-butoxy-benzylamide]: the 50% inhibitory concentration (IC50) in the data set with BVDV(NADL) was greater than 6 µM. The CC50 at 4 days in data set [1] is greater than 6 µM.

The values are drawn from patent US6605614B2, “[1,8] naphthyridine derivatives having antiviral activity” (BioChem Pharma Inc., priority 1999, dated 2003).
